# Measurements: patent publication EP0210342A2, “Medicament containing pyridinones having an antithrombotic activity” (Dr. Karl Thomae GmbH, priority 1985, dated 1987)
# Legend:
# [1] = system: Thrombusbildung; assay: Stenosis-induced spontaneous coronary thrombus formation in anaesthetised dogs (shake loose, Folts); format: in vivo, Hunde; details: for antithrombotische Wirkung: 1 mg/kg; for Verminderung der Häufigkeit der Spontanverschlüsse: 1 mg/kg i.v.
# [2] = Acute toxicity in mice (LD50, 14 days observation); parameters: species or system Mäusen; details: mouse, in vivo, observation 14 days
# Text: Die akute Toxizität der zu untersuchenden Substanzen wurde an Mäusen (Beobachtungszeit: 14 Tage) nach oraler bzw. intravenöser Gabe bestimmt. Es wurde die LD₅₀ aus dem Prozentsatz der Tiere berechnet, die nach verschiedenen Dosen innerhalb der Beobachtungszeit verstarben: […]
compound,measurement,setting,value
"CC(C)NCC(O)COc1ccc(CC(N)=O)cc1 (stereo not drawn) [Atenolol, reference compound]",antithrombotische Wirkung,[1],nicht antithrombotisch
"CC(C)NCC(O)COc1cccc2ccccc12 (stereo not drawn) [Propranolol, reference compound]",antithrombotische Wirkung,[1],nicht antithrombotisch
"COc1ccc2nc(-c3ccc(OCC(O)CNC(C)(C)C)cc3)n(C)c(=O)c2c1 (single isomer, unassigned; (-)) [Verbindung C, (-)-2-2[4-(2-Hydroxy-3-tert.butylamino-propoxy)-phenyl]-3-methyl-6-methoxy-3,4-dihydro-chinazolin-4-on]",Verminderung der Häufigkeit der Spontanverschlüsse,[1]; 30th to 60th minute after substance,73%
same,Verminderung der Häufigkeit der Spontanverschlüsse,[1]; first 30 min after substance,55%
"COc1ccc2nc(-c3ccc(OCC(O)CNC(C)(C)C)cc3)n(C)c(=O)c2c1 (stereo not drawn) [Verbindung B, 2-[4-(2-Hydroxy-3-tert.butylamino-propoxy)-phenyl]-3-methyl-6-methoxy-3,4-dihydro-chinazolin-4-on]",LD50 at 336 h,[2]; iv,75 mg/kg
same,LD50 at 336 h,[2]; po,750 mg/kg
